Source: the NIST ThermoML archive (doi:10.1021/je050031f)
± gives the expanded uncertainty stated by the source.

Experiments:
[1] = 100.8 kPa, Liquid
[2] = refractive index (Na D-line) (dimensionless); details: 101.33 kPa, Liquid, Standard Abbe refractometry
[3] = xn = mol fraction of the nth substance listed; details: 100.8 kPa, Liquid
[4] = refractive index (Na D-line) (dimensionless); xn = mol fraction of the nth substance listed; details: 100.8 kPa, Liquid, Standard Abbe refractometry

Row | Structure (SMILES) | mass density ([1]; 288.15 K) | viscosity ([1]; 288.15 K) | mass density ([1]; 298.15 K) | viscosity ([1]; 298.15 K) | mass density ([1]; 308.15 K) | viscosity ([1]; 308.15 K) | refractive index ([2]; 288.15 K) | refractive index ([2]; 298.15 K) | refractive index ([2]; 308.15 K) | mass density ([3]; 288.15 K, x1 = 1) | mass density ([3]; 298.15 K, x1 = 1) | mass density ([3]; 308.15 K, x1 = 1) | refractive index ([4]; 288.15 K, x1 = 1) | refractive index ([4]; 298.15 K, x1 = 1) | refractive index ([4]; 308.15 K, x1 = 1) | also measured
1 | CC1CCCCC1 [methylcyclohexane] | 773.4 ± 0.3 kg/m3 | 0.784 ± 0.01 mPa·s | 765 ± 0.3 kg/m3 | 0.685 ± 0.009 mPa·s | 756.3 ± 0.3 kg/m3 | 0.6 ± 0.008 mPa·s | 1.42578 ± 0.00033 | 1.42053 ± 0.00033 | 1.41537 ± 0.00033 |  |  |  |  |  |  | 
2 | CC(C)OC(C)C [diisopropyl ether] | 729 ± 0.3 kg/m3 | 0.347 ± 0.005 mPa·s | 718.6 ± 0.3 kg/m3 | 0.313 ± 0.005 mPa·s | 707.9 ± 0.3 kg/m3 | 0.283 ± 0.005 mPa·s | 1.37126 ± 0.00031 | 1.36537 ± 0.00031 | 1.35954 ± 0.00031 |  |  |  |  |  |  | 
3 | CCO [ethanol] + CC(C)OC(C)C |  |  |  |  |  |  |  |  |  |  |  |  |  |  |  | mass density ([3]; 288.15 K, x2 = 0): 793.6 ± 0.2 kg/m3; viscosity ([3]; 288.15 K, x2 = 0): 1.31 ± 0.016 mPa·s; mass density ([3]; 298.15 K, x2 = 0): 785.2 ± 0.3 kg/m3; viscosity ([3]; 298.15 K, x2 = 0): 1.085 ± 0.013 mPa·s; mass density ([3]; 308.15 K, x2 = 0): 776.5 ± 0.3 kg/m3; viscosity ([3]; 308.15 K, x2 = 0): 0.906 ± 0.011 mPa·s; refractive index ([4]; 288.15 K, x2 = 0): 1.36351 ± 0.00031; refractive index ([4]; 298.15 K, x2 = 0): 1.35935 ± 0.00031; refractive index ([4]; 308.15 K, x2 = 0): 1.35504 ± 0.00031
4 | CC(C)OC(C)C [diisopropyl ether] + CC1CCCCC1 |  |  |  |  |  |  |  |  |  | 729 ± 0.3 kg/m3 | 718.6 ± 0.3 kg/m3 | 707.9 ± 0.3 kg/m3 | 1.37126 ± 0.00031 | 1.36537 ± 0.00031 | 1.35954 ± 0.00031 | viscosity ([3]; 288.15 K, Capillary tube (Ostwald / Ubbelohde) method, x1 = 1): 0.347 mPa·s; viscosity ([3]; 298.15 K, Capillary tube (Ostwald / Ubbelohde) method, x1 = 1): 0.313 mPa·s; viscosity ([3]; 308.15 K, Capillary tube (Ostwald / Ubbelohde) method, x1 = 1): 0.283 mPa·s
5 | CCO [ethanol] + CC1CCCCC1 |  |  |  |  |  |  |  |  |  | 793.6 ± 0.2 kg/m3 | 785.2 ± 0.3 kg/m3 | 776.5 ± 0.3 kg/m3 | 1.36351 ± 0.00031 | 1.35935 ± 0.00031 | 1.35504 ± 0.00031 | viscosity ([3]; 288.15 K, x1 = 1): 1.31 ± 0.016 mPa·s; viscosity ([3]; 298.15 K, x1 = 1): 1.085 ± 0.013 mPa·s; viscosity ([3]; 308.15 K, x1 = 1): 0.906 ± 0.011 mPa·s
6 | CCO [ethanol] | 793.6 ± 0.2 kg/m3 | 1.31 ± 0.016 mPa·s | 785.2 ± 0.3 kg/m3 | 1.085 ± 0.013 mPa·s | 776.5 ± 0.3 kg/m3 | 0.906 ± 0.011 mPa·s | 1.36351 ± 0.00031 | 1.35935 ± 0.00031 | 1.35504 ± 0.00031 |  |  |  |  |  |  | 
